# Reference: ChEMBL document CHEMBL4739717, “Methods of treating cartilage disorders through inhibition of clk and dyrk” (2020)
# How the values were obtained:
# [1] = Induction of chondrogenesis in human MSC assessed as maximum activity at 300 nM incubated for 6 days by rhodamine B and Nile red staining based imaging analysis relative to control; assay type: functional; conditions: BMMSC, 144 h, time 6 day
# [2] = Effect on Wnt signaling pathway in human SW480 cells harbouring TCF/LEF luciferase reporter gene and SP5-Luc reporter gene incubated for 36 to 48 hrs by luminescence assay; assay type: cell-based
# [3] = target: Dual specificity tyrosine-phosphorylation-regulated kinase 1A (Homo sapiens, UniProt Q13627); experiment: Inhibition of recombinant DYRK1A (unknown origin) using Ser/Thr 18 peptide as substrate incubated for 1 hr in presence of ATP by FRET assay
# [4] = Induction of chondrogenesis in human MSC assessed as maximum activity at 100 nM incubated for 6 days by rhodamine B and Nile red staining based imaging analysis relative to control; assay type: functional; conditions: BMMSC, 144 h, time 6 day
# [5] = Induction of chondrogenesis in human MSC assessed as incubated for 6 days by rhodamine B and Nile red staining based imaging analysis; assay type: functional; conditions: bmmsc
# [6] = Inhibition of IL1-beta induced MMP3 expression levels in human chondrocytes assessed as MMP3 levels incubated for 2hrs followed by IL1-beta stimulation and measured after overnight incubation by LANCE assay; assay type: functional, cell-based; conditions: Chondrocyte
Compound,EC50 [2] [nM],EC50 [3] [nM],EC50 [5] [nM],EC50 [6] [nM],Emax at 0.3 µM [1] [%],Emax at 0.1 µM [4] [%]
CN1CCN(c2nccc3[nH]c(-c4n[nH]c5ccc(-c6cncc(CN7CCCC7)c6)cc45)cc23)CC1,9380,48,,,31,
c1cncc(-c2ccnc3[nH]c(-c4n[nH]c5cnc(-c6cncc(CN7CCCC7)c6)cc45)cc23)c1,> 10000,72,,,16.7,
O=C1COc2cccc(c2)-c2cncc3[nH]c(nc23)-c2n[nH]c3ccc(cc23)-c2cncc(c2)N1,86.8,,100,37.4,,185
Nc1cncc(-c2cc3c(-c4cc5c(-c6ccccc6F)cncc5[nH]4)n[nH]c3cn2)c1,1630,40,,,15.5,
c1ncc(-c2ccc3[nH]nc(-c4cc5c(N6CCCCC6)cncc5[nH]4)c3c2)cc1CN1CCCC1,1840,24,,,24.7,
FC1(F)CCN(Cc2cncc(-c3ccc4[nH]nc(-c5cc6c(-c7cccnc7)ccnc6[nH]5)c4c3)c2)C1,523,10,,,20.3,
O=C(Nc1cncc(-c2cc3c(-c4cc5c(N6CCCCC6)nccc5[nH]4)n[nH]c3cn2)c1)C1CCC1,4070,23,,,42.4,
c1cncc(-c2ccc3[nH]nc(-c4cc5c(-c6cccnc6)cncc5[nH]4)c3c2)c1,310,1,100,1.1,,58.2
CC(C)OCCCNC(=O)c1n[nH]c2ccc(-c3cccnc3)cc12,464,,,10.8,,92.5
c1cncc(-c2ccnc3[nH]c(-c4n[nH]c5cnc(-c6cncnc6)cc45)cc23)c1,> 10000,100,,,49.6,
CCNCc1cncc(-c2cnc3[nH]nc(-c4cc5c(-c6cc(F)cc(CNS(C)(=O)=O)c6)cncc5[nH]4)c3c2)c1,> 10000,6,,3000,,42.8
Cn1cc(-c2ccc3[nH]nc(-c4cc5c(-c6cccnc6)cncc5[nH]4)c3c2)cn1,250,53,30,,,65.2
CC(C)CC(=O)Nc1cncc(-c2ccc3[nH]nc(-c4nc5c(-c6ccc(F)cc6)cncc5[nH]4)c3c2)c1,57,60,100,,,125
CC(C)CC(=O)Nc1cncc(-c2cnc3[nH]nc(-c4cc5c(-c6ccncc6)cccc5[nH]4)c3c2)c1,711,23,30,,,71.4

# The next lines start with results.
EC50 [2] [nM],EC50 [3] [nM],EC50 [5] [nM],EC50 [6] [nM],Compound,Emax at 0.3 µM [1] [%],Emax at 0.1 µM [4] [%]
> 10000,7,,,c1cncc(-c2cncc3[nH]c(-c4n[nH]c5ncc(-c6cncnc6)cc45)cc23)c1,24.1,
3480,12,,,CN1CCN(c2cncc3[nH]c(-c4n[nH]c5ccc(-c6cncc(NC(=O)CC(C)(C)C)c6)cc45)cc23)CC1,30.8,
51.8,,50,3000,O=C1CCc2cccc(c2)-c2cncc3[nH]c(nc23)-c2n[nH]c3ccc(cc23)-c2cncc(c2)N1,,225
1.2,20,30,,CC(C)Nc1cncc(-c2cnc3[nH]nc(-c4nc5c(-c6cccc(F)c6)cncc5[nH]4)c3c2)c1,,504
1170,7,100,,CN1CCN(c2ccnc3[nH]c(-c4n[nH]c5ccc(-c6cncc(N)c6)cc45)cc23)CC1,,50.2
10,76,100,,CCC(=O)Nc1cncc(-c2cnc3[nH]nc(-c4nc5c(-c6ccsc6)cccc5[nH]4)c3c2)c1,,167
> 10000,21,100,,CCNCc1cncc(-c2ccc3[nH]nc(-c4cc5c(-c6cc(F)cc(CNS(C)(=O)=O)c6)cncc5[nH]4)c3c2)c1,,58
